# Data taken from US20090209615A1, “INHIBITORS OF MATRIX METALLOPROTEINASES TO TREAT NEUROLOGICAL DISORDERS” (priority 2004, published 2009).
# “Also recorded” adds a separate entry of the source. Read-outs that look alike come from different tables or passages of the source.
# Tests used:
# [1] = test system: MMP gelatinolytic activity in the ischemic cortex; test: In situ zymography of ischemic brain sections treated with MMP inhibitors; type: biochemical, mouse; conditions: brain sections after MCA occlusion/reperfusion treated with inhibitor
# Description: In situ zymography with the MMP fluorogenic substrate DQ-gelatin-FITC (Molecular Probes) was performed on fresh cryostat sections of mouse brains harvested after MCA ischemia and reperfusion (A to J). […] A, C, E, and G represent fluorogenic substrate (green), reflecting MMP activity in situ. B, D, F, H, I, and J are merged images of the fluorogenic substrate and Hoechst dye counterstaining to identify nuclei.
# A, In situ zymography with the MMP fluorogenic substrate DQ-gel (green in top panels) merged with nuclear DNA staining by Hoechst dye (blue plus green in bottom panels).
# MMP-9 [2] = test: MMP-9 activity in ischemic mouse brain after treatment in vivo (in situ zymography, gelatin zymography, Western blot); set-up: species or system C57BL/6J mice
# laminin = test: Laminin degradation in the ischemic hemisphere after MCAO/R (Western blot, immunostaining); type: in vivo, mouse; conditions: for laminin degradation in the ischemic hemisphere (Western blot, 51 kDa fragment): SB-3CT-treated mice after transient MCAO/R
# [3] = Physiological variables and regional cerebral blood flow in MCAO mice; conditions: for Ca^2+ / Glucose / MABP / Na^+ / PCO2 / PO2 / pH: mean ± SEM (n = 5); for regional cerebral blood flow (rCBF), laser Doppler flowmetry: MCAO and reperfusion; for pH: arterial blood
# MMP-9 [4] = molecular target: T1, MMP-9 (Mus musculus, UniProt P41245); test: MMP-9 activity in ischemic mouse brain after treatment in vivo (in situ zymography, gelatin zymography, Western blot); set-up: species or system C57BL/6J mice; conditions: SB-3CT-treated mice, 2-hr MCA occlusion and 24-hr reperfusion
# T1 construct: from tissue; host or cells: brain of C57BL/6J mice after MCA occlusion/reperfusion
# [5] = test system: C57BL/6J mice, MCA occlusion/reperfusion; test: Transient focal cerebral ischemia (MCA occlusion/reperfusion): infarct volume and neurological deficits; type: in vivo
# cerebrocortical neurons = test: Neuronal apoptosis induced by SNOC-activated MMP-9 in cerebrocortical cultures; type: cell-based; conditions: R-proMMP-9 pre-activated by SNOC, 18 hours
# MMP-9 [6] = molecular target: T2, MMP-9 (Homo sapiens, UniProt P14780); test: Ex vivo degradation of neuronal laminin by exogenous MMP-9 in mouse-brain sections; type: biochemical
# Target sequence in this assay (P14780 107-707 limits assumed, species assumed): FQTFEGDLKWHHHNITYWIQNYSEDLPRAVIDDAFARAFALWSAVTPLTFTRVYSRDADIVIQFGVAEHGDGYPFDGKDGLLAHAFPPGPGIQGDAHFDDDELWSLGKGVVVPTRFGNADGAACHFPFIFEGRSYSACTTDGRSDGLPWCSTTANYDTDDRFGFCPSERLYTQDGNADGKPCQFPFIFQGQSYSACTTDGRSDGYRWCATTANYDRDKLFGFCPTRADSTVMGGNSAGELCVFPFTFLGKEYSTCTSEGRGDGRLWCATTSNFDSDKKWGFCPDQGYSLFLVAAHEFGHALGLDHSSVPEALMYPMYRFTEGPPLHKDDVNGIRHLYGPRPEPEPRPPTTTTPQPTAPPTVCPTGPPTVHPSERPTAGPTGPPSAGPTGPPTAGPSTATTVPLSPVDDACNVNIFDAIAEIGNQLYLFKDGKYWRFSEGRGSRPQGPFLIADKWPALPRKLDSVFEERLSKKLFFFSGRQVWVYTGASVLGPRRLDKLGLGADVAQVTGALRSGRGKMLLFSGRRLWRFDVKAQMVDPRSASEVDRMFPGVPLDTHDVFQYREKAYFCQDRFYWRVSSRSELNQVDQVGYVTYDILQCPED
# Description: Purified mouse Engelbreth-Holm-Swarm laminin (ms EHS Ln) served as a molecular marker for laminin immunoblotting. The membrane was reblotted with anti-actin antibody to ensure equal protein loading in each lane.
# Ex vivo laminin degradation and Western blots. Brain lysates (50 mg of total protein in TBS with 0.05% Brij 35) were incubated overnight at 37° C. with activated MMP-9, latent preform of MMP-9 (proMMP-9), or the catalytic domain of membrane type 1 (MT1)-MMP. […] Laminin and MMP-9 were analyzed by immunoblotting using rabbit pan-laminin (pan-Ln) and MMP-9 antibodies (from Sigma (St. Louis, Mo.) and Calbiochem (La Jolla, Calif.), respectively), followed by peroxidase-conjugated anti-rabbit IgG antibody. Peroxidase was visualized by enhanced chemiluminescence (Amersham Biosciences).
# [7] = Stability of S-nitrosothiols (NAT conversion from DAN)
# R-proMMP-9 = R-proMMP-9 (Homo sapiens, UniProt P14780); test: Activation of R-proMMP-9 in vitro (gelatin zymography, fluorogenic peptide cleavage)
# MMP-2 = molecular target: T3, MMP-2 (Homo sapiens, UniProt P08253); conditions: high-affinity site for TIMPs, Olson et al. 1997; cited from earlier work
# T3 sequence (P08253 110-660): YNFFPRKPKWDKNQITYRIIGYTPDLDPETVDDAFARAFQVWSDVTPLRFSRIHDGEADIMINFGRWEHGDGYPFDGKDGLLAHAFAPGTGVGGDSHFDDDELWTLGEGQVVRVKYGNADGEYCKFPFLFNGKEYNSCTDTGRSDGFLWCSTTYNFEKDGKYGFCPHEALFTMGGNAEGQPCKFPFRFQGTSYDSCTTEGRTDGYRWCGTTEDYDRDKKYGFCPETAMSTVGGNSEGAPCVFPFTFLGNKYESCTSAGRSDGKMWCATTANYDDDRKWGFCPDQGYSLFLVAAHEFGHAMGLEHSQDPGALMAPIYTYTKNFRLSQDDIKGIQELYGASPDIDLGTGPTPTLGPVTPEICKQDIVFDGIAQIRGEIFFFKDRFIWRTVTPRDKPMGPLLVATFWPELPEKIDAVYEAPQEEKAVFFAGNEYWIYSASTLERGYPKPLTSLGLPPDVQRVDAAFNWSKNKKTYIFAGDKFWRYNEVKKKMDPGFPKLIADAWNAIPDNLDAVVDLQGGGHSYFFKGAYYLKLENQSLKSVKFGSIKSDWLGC
# MMP-9 [8] = molecular target: T2, MMP-9; conditions: high-affinity site for TIMPs, Olson et al. 1997; cited from earlier work
# Target sequence in this assay (P14780 107-707 limits assumed): as the sequence (P14780 107-707 limits assumed, species assumed) above
# Sequence of R-proMMP-9 (P14780 20-444 limits assumed): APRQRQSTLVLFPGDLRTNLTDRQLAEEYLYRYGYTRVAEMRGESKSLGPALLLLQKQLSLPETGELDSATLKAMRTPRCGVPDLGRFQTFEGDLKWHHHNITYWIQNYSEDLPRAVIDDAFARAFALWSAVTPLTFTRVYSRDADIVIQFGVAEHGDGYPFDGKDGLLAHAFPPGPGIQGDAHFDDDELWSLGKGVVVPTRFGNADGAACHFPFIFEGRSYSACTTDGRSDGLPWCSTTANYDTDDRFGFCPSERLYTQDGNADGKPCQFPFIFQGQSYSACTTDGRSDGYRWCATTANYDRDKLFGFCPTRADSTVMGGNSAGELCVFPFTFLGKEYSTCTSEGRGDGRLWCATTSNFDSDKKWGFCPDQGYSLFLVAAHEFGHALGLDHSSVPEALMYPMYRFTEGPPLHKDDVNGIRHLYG
molecule,measurement,setting,value
"c1cnc2c(c1)ccc1cccnc12 [1,10-phenanthroline]",MMP gelatinolytic activity in the ischemic cortex (in situ zymography),[1],reduced; also recorded: abrogated
same,MMP gelatinolytic activity in the ischemic cortex (in situ zymography),[1]; listed as 1/10-phenanthroline,can prevent activation of MMP-9
"O=[N+]([O-])c1cccc2c(Br)n[nH]c12 [3-bromo-7-nitroindazole, reference compound]",MMP activity in the ischemic cortex (in situ zymography),"MMP-9 [2]; 30 mg/kg body weight i.p. prior to ischemia, wild-type mice",abrogated
same,laminin degradation in the ischemic cortex (laminin immunoreactivity),"laminin; wild-type mice treated with nNOS inhibitor, after MCA occlusion/reperfusion",attenuated; also recorded: blockage of laminin degradation
"O=S(=O)(CC1CS1)c1ccc(Oc2ccccc2)cc1 (stereo not shown) [Compound 1, (4-Phenoxyphenylsulfonyl)methylthiirane]",Ca^2+,[3]; After MCAO,1.100 ± 0.074 mmol/L
same,Glucose,[3]; After MCAO,154.3 ± 12.6 mg/dL
same,MABP,[3]; After MCAO,76.12 ± 2.89 mmHg
same,Na^+,[3]; After MCAO,157.7 ± 2.0 mmol/L
same,PCO2,[3]; After MCAO,43.90 ± 5.28 mmHg
same,PO2,[3]; After MCAO,245.4 ± 24.0 mmHg
same,Ca^2+,[3]; Before MCAO,1.150 ± 0.021 mmol/L
same,Glucose,[3]; Before MCAO,160.7 ± 13.2 mg/dL
same,MABP,[3]; Before MCAO,78.68 ± 3.17 mmHg
same,Na^+,[3]; Before MCAO,155.7 ± 1.8 mmol/L
same,PCO2,[3]; Before MCAO,40.70 ± 7.828 mmHg
same,PO2,[3]; Before MCAO,230.8 ± 31.7 mmHg
same,Ca^2+,[3]; During MCAO,1.117 ± 0.081 mmol/L
same,Glucose,[3]; During MCAO,162.70 ± 13.3 mg/dL
same,MABP,[3]; During MCAO,79.49 ± 3.48 mmHg
same,Na^+,[3]; During MCAO,157.20 ± 0.5 mmol/L
same,PCO2,[3]; During MCAO,44.95 ± 14.55 mmHg
same,PO2,[3]; During MCAO,214.5 ± 10.3 mmHg
same,"regional cerebral blood flow (rCBF), laser Doppler flowmetry","[3]; vs vehicle-treated controls, listed as SB3CT",no significant differences; also recorded: unaffected
same,"regional cerebral blood flow (rCBF), laser Doppler flowmetry","[3]; vs vehicle-treated controls, listed as SB-3CT",no significant differences
same,pH,[3]; After MCAO,7.170 ± 0.027
same,pH,[3]; Before MCAO,7.313 ± 0.060
same,pH,[3]; During MCAO,7.106 ± 0.025
same,physiological parameters including arterial blood gases and glucose,[3]; vs vehicle-treated controls,did not affect
same,"active MMP-9 in ischemic brain (gelatin zymography, Western blot)",MMP-9 [4]; listed as SB3CT,attenuated the increase; also recorded: can prevent activation of MMP-9
same,"proMMP-9 in ischemic brain (gelatin zymography, Western blot)",MMP-9 [4]; listed as SB3CT,attenuated the increase
same,"active MMP-9 in ischemic brain (gelatin zymography, Western blot)",MMP-9 [4]; listed as SB-3CT,attenuated the increase; also recorded: significantly decreased
same,"proMMP-9 in ischemic brain (gelatin zymography, Western blot)",MMP-9 [4]; listed as SB-3CT,attenuated the increase; also recorded: also decreased
same,"MMP gelatinolytic activity in the ischemic region (in situ zymography, deconvolution microscopy)","MMP-9 [2]; SB-3CT-treated mice vs vehicle-treated control, after MCAO/reperfusion",significantly reduced
same,infarct volume (TTC staining),"[5]; 25 mg/kg i.p. twice, 30 minutes before MCAO and 2 hours after MCAO, 2-hour MCAO, 24-hour reperfusion, vs vehicle, P<0.004 (FIG. 9), listed as SB3CT",decreases infarct volume; also recorded: protects the ischemic brain
same,infarct volume (TTC staining),"[5]; 25 mg/kg i.p., 24 h after reperfusion, vs vehicle-treated controls, p<0.001 (FIG. 14C)",decreased infarct volume
same,infarct volume,"[5]; 25 mg/kg i.p., administration 6 h after ischemia, compared with 55% in vehicle-treated animals",40%
same,infarct volume,"[5]; 25 mg/kg i.p., first injection 2 h postischemic, second 3 h later, 24 h after reperfusion",30 % of control
same,infarct volume,"[5]; 25 mg/kg i.p., preischemic injection (30 min before ischemia, second immediately before reperfusion), 24 h after reperfusion",30 % of control
same,neurological behavioral score,"[5]; 24 h after MCA occlusion/reperfusion, vs vehicle-treated controls, p<0.02 (FIG. 14D)",significantly improved neurological function
same,neurological behavioral outcomes (deficit score 0-4),"[5]; 24 hours after focal MCAO and reperfusion, vs vehicle, P<0.01 (FIG. 9C), listed as SB3CT",significantly reduced neurological deficit outcomes; also recorded: improved
same,behavioral scores (five-point scale),"[5]; treated 2 h after ischemia, 24 h after reperfusion",significant improvement in behavioral scores
same,behavioral scores (five-point scale),"[5]; treated before ischemia, 24 h after reperfusion",significant improvement in behavioral scores
same,"laminin degradation in the ischemic hemisphere (Western blot, 51 kDa fragment)",laminin; listed as SB3CT,attenuated laminin degradation products
same,"laminin degradation in the ischemic hemisphere (Western blot, 51 kDa fragment)",laminin; listed as SB-3CT,decreased laminin degradation; also recorded: reduced
"O=S(=O)(CCC1CO1)c1ccc(Oc2ccccc2)cc1 (stereo not shown) [Compound 5, 2-(4-Phenoxyphenylsulfonyl)ethyloxirane]",melting point,,75 to 77 °C
CNC(=O)[C@H](Cc1c[nH]c2ccccc12)NC(=O)[C@@H](CC(=O)NO)CC(C)C [GM6001],MMP gelatinolytic activity in the ischemic cortex (in situ zymography),[1],reduced; also recorded: abrogated; also recorded: can prevent activation of MMP-9
same,neuronal apoptosis,cerebrocortical neurons,abrogated the effect; also recorded: blocked the neuronal cell death
same,degradation of neuronal laminin by activated MMP-9,MMP-9 [6],significantly reduced laminin degradation; also recorded: inhibited MMP-9 proteolysis of neuronal laminin
"N[C@@H](CSN=O)C(=O)O [SNOC, S-nitrosocysteine]",half-life at 200 μM,[7],< 10 min
same,decayed,[7]; within 15 min of incubation,over 95%
same,conversion of R-proMMP-9 into the activated form (gelatin zymography),"R-proMMP-9; R-proMMP-9 100 ng/ml, 200 μM agent, 18 hours, room temperature",partial conversion
same,initial velocity of R-proMMP-9 activation,R-proMMP-9; cleavage of synthetic fluorogenic peptide substrate,0.88 µM/h
"O=NO [acidified sodium nitrite, sodium nitrite]",conversion of R-proMMP-9 into the activated form (gelatin zymography),R-proMMP-9,partial conversion
TIMP-1: endogenous cellular protein inhibitor of MMPs (tissue inhibitor of metalloproteinases),Ki,MMP-2,29 ± 5 nM
same,Ki,MMP-9 [8],24 ± 4 nM
